Laboratory results reported in PMC10002828, “FRET assay for live-cell high-throughput screening of the cardiac SERCA pump yields multiple classes of small-molecule allosteric modulators” (Research Square, 2023).
Structures can show the parent of a compound that is named as a salt. Where two headings read alike, the source gives them in different places. One block for each compound: values may come before it.

Columns and labels:
SERCA [1] = details: cited from earlier work
SERCA2a [2] = biological target: T1, SERCA2a (Sus scrofa, UniProt P11607); assay: NADH-linked enzyme-coupled Ca2+-ATPase assay in pig cardiac SR vesicles; assay type: biochemical; details: for functional category (Ca2+-ATPase and Ca2+-transport, VMAX and VMID): based on both Ca2+-ATPase and Ca2+-transport assays; for Ca2+-ATPase increase at VMID (ΔVMID): midpoint Ca2+; for Ca2+-ATPase increase at VMAX (ΔVMAX): saturating Ca2+
T1 construct: SERCA2a in native SR preparations; from tissue; host or cells: porcine left ventricular tissue (cardiac SR vesicles)
Experimental: (§1) Cardiac SR vesicles were isolated from fresh porcine left ventricular tissue using differential centrifugation of the homogenized tissue as previously described. The SR vesicles were flash-frozen and stored at −80°C until needed.
Functional assays were performed using porcine cardiac SR vesicles. An enzyme-coupled, NADH-linked ATPase assay was used to measure SERCA ATPase activity in 384-well microplates. Each well contained 50 mM MOPS (pH 7.0), 100 mM KCl, 1 mM EGTA, 0.2 mM NADH, 1 mM phosphoenol pyruvate, 10 IU/mL of pyruvate kinase, 10 IU/mL of lactate dehydrogenase, 7 μM of the calcium ionophore A23187 (Sigma), and CaCl2 was added to set free [Ca^2+] to three different concentrations. The Ca^2+-ATPase were measured at VMAX (saturating, pCa 5.4), VM!D (subsaturating, midpoint, pCa 6.2), and basal (non-activating, pCa 8.0) [Ca^2+]. 10 μg/mL of SR vesicle, calcium, compound (0.048 to 50 μM), and assay mix were incubated for 20 min at room temperature before measurement of functional assays with each of the 18 hit compounds, because a shorter incubation time than the FRET live-cell assays achieved optimal responses. The assay was started upon the addition of MgATP at a final concentration of 5 mM (total volume to 80 μL), and absorbance was read in a SpectraMax Plus microplate spectrophotometer from Molecular Devices (Sunnyvale, CA) at 340nm.
(§2) SERCA2a ATPase (or Ca-transport) activity at pCa 8.0 was subtracted from pCa 5.4 and pCa 6.2 values. The % effect ATPase (or Ca-transport transport) activity was normalized to the DMSO only (or 2CS in the absence of compound), and then were plotted against [Ca], and the curves were fitted using the Hill function, where V is the initial ATPase rate (or fluorescence rate), VMAX is the ATPase (or Ca^2+-transport) at saturating [Ca^2+], and EC50 or pKCa, or VM!D is the apparent Ca^2+ dissociation constant as described previously ATPase (or Ca^2+-transport) at (Midpoint Ca^2+)[44].

SERCA2a [3] = biological target: T1, SERCA2a; assay: Fluo-4 oxalate-supported Ca2+-transport assay in pig cardiac SR vesicles; assay type: biochemical; details: for coupling ratio (CR), VMAX (Ca2+-transport) / VMAX (Ca2+-ATPase): at VMAX, control 0.66; for Ca2+-transport increase at VMID (Δ): midpoint Ca2+; for Ca2+-transport increase at VMID (Δ) / C10, Ca2+-transport at VMID: pCa 6.2; for Ca2+-transport change at VMAX (Δ, increase positive): saturating Ca2+
Experimental: as §1
Ca^2+-transport assays were performed with similar porcine SR samples as in the Ca^2+-ATPase assays described above. The compound effect on the Ca^2+-transport activity of SERCA2a was determined using an oxalate-supported assay in which the change in fluorescence in a Ca-sensitive dye, Fluor-4, was determined as previously described. A buffered solution containing 50 mM MOPS (pH 7.0), 100 mM KCl, 30 mg/mL sucrose, 1 mM EGTA, 10 mM potassium oxalate, 2 μM Fluo-4, 30 μg/mL porcine cardiac SR vesicles, CaCl2 calculated to reach the free [Ca^2+] (pCa 8.0, 6.2, and 5.4), and compound (0.048 to 50μM) was dispensed into 384-well black walled, transparent bottomed plates (Greiner Bio-One) containing the tested small molecule and incubated at 22°C for 20 minutes while covered and protected from light. To start the reaction, MgATP was added to a final concentration of 5 mM, and the decrease in 485-nm excited fluorescence of Fluo-4 was monitored at 520 nm for 15 min using a FLIPR Tetra (Molecular Devices, San Jose, CA).
as §2

[4] = biological target: T2, human two-color SERCA2a (2CS) biosensor (Homo sapiens, UniProt P16615); assay: FLT/FRET concentration-response of two-color SERCA2a (2CS) biosensor in live HEK293 cells; assay type: cell-based
T2 construct: expressed in transfected cells
Experimental: FRET CRC assay plates (0.78–100 μM compound range) with at least ten different compound concentrations were made by adding the appropriate volume of compound or DMSO into black 384 well plates (Greiner Bio-One) using a Mosquito HV (SPTLabTech, United Kingdom). Subsequent ATPase and Ca^2+-transport CRC assay plates (0–50 μM compound range) with repurchased compounds were made in a similar manner using with the Echo 550 (Beckman Coulter) using either 384 well transparent plates (Greiner Bio-One) or black-walled plates with transparent bottoms (Greiner Bio-One), respectively.
On each day of screening, cells were harvested, washed three times with PBS, and centrifuged at 300g for 5min. Cells were filtered using a 70μm cell strainer and diluted to 1–2 × 10^6 cells/mL. Cell concentration and viability were assessed using the Cell countess (Invitrogen) and trypan blue assay. During assays, cells were constantly and gently stirred using a magnetic stir bar at room temperature, keeping the cells in suspension and evenly distributed to avoid clumping. Cells were dispensed at 5μL or 50μL per well into assay plates (dispensed into 40 assay plates, each containing 1536 wells) pre-plated with either compound or DMSO using a Multdrop Combi liquid dispenser (Thermo Fisher Scientific, Pittsburg, PA) and sealed until needed. […] The FRET HTS screen was performed over two days with a custom HTS fluorescence lifetime plate reader (FLT-PR) and spectral plate reader (SUPR) provided by Photonic Pharma LLC (Minneapolis, MN)[18]. […]
A detailed description of the high-throughput fluorescence lifetime plate reader (FLT-PR) and spectral unmixing plate reader (SUPR), manufactured by Fluorescence Innovations Inc and provided by Photonic Pharma, LLC was described previously[18],[21]. Briefly, for lifetime measurement with the FLT-PR, the observed donor-fluorescence waveform, F (t) was fit by a convolution of the measured instrument response function (IRF) and a single-exponential decay to obtain the lifetime (τ) of the donor fluorophore[57] in the absence (τD) and presence (τDA) of the acceptor as described in Eq. (1): 1 F(t)=Ae^(−t/τ) FRET efficiency (E) was determined as the fractional decrease of donor FLT in the absence and in the presence of acceptor as in Eq. (2): 2 E=1−τDA/τD E was determined in the presence and absence of compound and normalized relative to E of the DMSO control. For spectral detection with the SUPR, the observed fluorescence emission spectrum F(λ) was fit by least-squares minimization of a linear combination of component spectra for donor (D), acceptor (A), cellular autofluorescence (C) and water Raman (W) as described previously. […]

[5] = set-up: method as in PMID 21878191; details: human usage; cited from earlier work
SERCA [6] = system: SERCA; set-up: method as in PMID 32397211; details: assay not named; read-out: EC50 (affinity); cited from earlier work
[7] = 2CS biosensor, live HEK293 cells, CRC 0.78–100 μM compound, read-out: FRET EC50

T1 sequence (P11607 1-997 isoform P11607-2): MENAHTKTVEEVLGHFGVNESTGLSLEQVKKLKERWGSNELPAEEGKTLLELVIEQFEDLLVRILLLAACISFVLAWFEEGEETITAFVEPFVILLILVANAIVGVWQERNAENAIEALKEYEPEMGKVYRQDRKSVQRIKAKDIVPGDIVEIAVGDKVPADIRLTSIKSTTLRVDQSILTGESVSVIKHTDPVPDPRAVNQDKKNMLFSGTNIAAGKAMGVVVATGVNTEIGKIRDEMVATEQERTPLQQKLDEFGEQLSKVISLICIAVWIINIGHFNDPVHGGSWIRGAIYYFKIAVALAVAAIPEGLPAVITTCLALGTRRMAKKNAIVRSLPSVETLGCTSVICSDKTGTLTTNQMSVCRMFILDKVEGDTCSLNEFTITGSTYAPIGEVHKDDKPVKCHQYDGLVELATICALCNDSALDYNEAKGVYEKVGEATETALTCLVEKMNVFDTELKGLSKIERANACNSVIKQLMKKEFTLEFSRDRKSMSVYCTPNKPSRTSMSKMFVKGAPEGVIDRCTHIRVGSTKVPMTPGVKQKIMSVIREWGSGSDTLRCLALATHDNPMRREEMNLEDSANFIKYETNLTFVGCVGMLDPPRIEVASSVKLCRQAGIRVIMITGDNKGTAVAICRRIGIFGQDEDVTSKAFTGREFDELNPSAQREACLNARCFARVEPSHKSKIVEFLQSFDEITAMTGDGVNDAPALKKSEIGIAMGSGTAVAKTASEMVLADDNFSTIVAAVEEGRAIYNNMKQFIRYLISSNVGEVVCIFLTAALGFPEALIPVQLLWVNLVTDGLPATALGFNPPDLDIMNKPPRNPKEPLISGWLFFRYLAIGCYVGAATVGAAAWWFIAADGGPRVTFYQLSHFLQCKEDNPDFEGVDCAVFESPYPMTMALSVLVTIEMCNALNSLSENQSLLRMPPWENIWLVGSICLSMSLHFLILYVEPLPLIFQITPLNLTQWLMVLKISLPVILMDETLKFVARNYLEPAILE
T2 sequence (P16615 1-997 isoform P16615-2): as the sequence (P11607 1-997 isoform P11607-2) above, with K371R, K403N, P538S, M570L, N576H, E667D, S713A, T865S, V889I, L963V counted along it

SMILES: O=C(c1cc(O)c(O)c([N+](=O)[O-])c1)c1ccccc1F [Ro 41–0960]
- effect on SERCA (SERCA [1]): increases SERCA maximal activity in high Ca^2+

- Ca2+-ATPase increase at VMID (ΔVMID) (SERCA2a [2]; pCa 6.2): 31%
- C10, Ca2+-ATPase at VMAX (SERCA2a [2]; pCa 5.4): 4.3 µM
- C10, Ca2+-ATPase at VMID (SERCA2a [2]; pCa 6.2): 7.8 µM
- Ca2+-ATPase increase at VMAX (ΔVMAX) (SERCA2a [2]; pCa 5.4): 49%
- coupling ratio (CR), VMAX (Ca2+-transport) / VMAX (Ca2+-ATPase) (SERCA2a [3]): 0.4
- Ca2+-transport increase at VMID (Δ) (SERCA2a [3]): 7%
- C10, Ca2+-transport at VMAX (SERCA2a [3]; pCa 5.4): 25 µM
- Ca2+-transport change at VMAX (Δ, increase positive) (SERCA2a [3]; pCa 5.4): 10%
- EC50 [4, 7]: 4.9 µM
SMILES: COc1ccc(C(=O)C2CCCN(Cc3nc(-c4ccc(F)cc4)cs3)C2)c(OC)c1 (stereo not drawn) [Compound 8]
- functional category (Ca2+-ATPase and Ca2+-transport, VMAX and VMID) (SERCA2a [2]): activates both Ca^2+-ATPase and Ca^2+-transport

SMILES: Cc1ccc2cccc(NC(=O)c3ccc(OC(C)C)cc3)c2n1 [CDN1163]
- effect on SERCA (SERCA [1]): stimulates Ca^2+ transport

- Ca2+-ATPase increase at VMID (ΔVMID) (SERCA2a [2]; pCa 6.2): 30%
- C10 (compound concentration that changes function by 10%), Ca2+-ATPase at VMAX (SERCA2a [2]; pCa 5.4): 9.7 µM
- EC50 (SERCA2a [2]; pCa 5.4, read-out: EC50, Ca2+-ATPase at VMAX): 11 µM
- C10, Ca2+-ATPase at VMID (SERCA2a [2]; pCa 6.2): 8.7 µM
- EC50 (SERCA2a [2]; pCa 6.2, read-out: EC50, Ca2+-ATPase at VMID): 11 µM
- coupling ratio (CR), VMAX (Ca2+-transport) / VMAX (Ca2+-ATPase) (SERCA2a [3]): 0.48
- Ca2+-transport increase at VMID (Δ) (SERCA2a [3]): 17%
- C10, Ca2+-transport at VMAX (SERCA2a [3]; pCa 5.4): 15 µM
- Ca2+-transport inhibition at VMAX (SERCA2a [3]; pCa 5.4): 21%
- C10, Ca2+-transport at VMID (SERCA2a [3]): 4 µM
- EC50 ([4]; 2CS biosensor, normalized FRET E, read-out: FRET half maximal effect (EC50), Figure 6 legend): 7.1 ± 0.2 µM
SMILES: O=C(c1ccc(-c2ccc(O)cc2)nc1)N1CCC(CCc2ccccc2)CC1 [Compound 6]
- functional category (Ca2+-ATPase and Ca2+-transport, VMAX and VMID) (SERCA2a [2]): activates Ca^2+-ATPase with divergent effects on Ca^2+-transport

- Ca2+-ATPase increase at VMID (ΔVMID) (SERCA2a [2]; pCa 6.2): 7%
- C10 (compound concentration that changes function by 10%), Ca2+-ATPase at VMAX (SERCA2a [2]; pCa 5.4): 25 µM
- C10, Ca2+-ATPase at VMID (SERCA2a [2]; pCa 6.2): 25 µM
- Ca2+-ATPase increase at VMAX (ΔVMAX) (SERCA2a [2]; pCa 5.4): 14%
- coupling ratio (CR), VMAX (Ca2+-transport) / VMAX (Ca2+-ATPase) (SERCA2a [3]): 0.74
- Ca2+-transport increase at VMID (Δ) (SERCA2a [3]): 19%
- C10, Ca2+-transport at VMAX (SERCA2a [3]; pCa 5.4): 14 µM
- C10, Ca2+-transport at VMID (SERCA2a [3]): 21 µM
- Ca2+-transport change at VMAX (Δ, increase positive) (SERCA2a [3]; pCa 5.4): 24%
- EC50 [4, 7]: 0.3 µM
SMILES: CCn1nc(C)c(CN2CCCC(Nc3ccc(C(C)C)cc3)C2)c1C (stereo not drawn) [Compound 7]
- functional category (Ca2+-ATPase and Ca2+-transport, VMAX and VMID) (SERCA2a [2]): activates both Ca^2+-ATPase and Ca^2+-transport

SMILES: C[C@]12CCC(=NOCCN)C[C@@H]1C(=O)C[C@@H]1[C@@H]2CC[C@]2(C)C(=O)CC[C@@H]12 [istaroxime, (E,Z)-3-((2-aminoethoxy)imino) androstane-6,17-dione hydrochloride)]
- effect on SERCA (SERCA [1]): stimulates SERCA activity
- clearance rate [5]: high clearance rate
- gastrointestinal absorption [5]: poor gastrointestinal absorption
- metabolic transformation [5]: extensive metabolic transformation

SMILES: C/C=C(/C)C(=O)O[C@H]1C(C)=C2[C@H]([C@@H]1OC(=O)CCCCCCC)[C@@](C)(OC(C)=O)C[C@H](OC(=O)CCC)[C@@]1(O)[C@H]2OC(=O)[C@@]1(C)O [thapsigargin]
- EC50 (SERCA [6]): ~0.0075 µM

- Ca2+-ATPase inhibition at VMAX (SERCA2a [2]; pCa 5.4): 93%
- Ca2+-ATPase inhibition at VMID (SERCA2a [2]; pCa 6.2): 90%
- Ca2+-transport inhibition (SERCA2a [3]): completely inhibited
- EC50 ([4]; assay not given, probably FRET EC50 of Table 1, read-out: EC50 (affinity), compared with thapsigargin): 3.8 µM
SMILES: OCC1(Cc2ccccc2F)CCCN(Cc2cc3c(cc2Cl)OCO3)C1 (stereo not drawn) [Compound 12]

SMILES: CCCCN(CC)c1nc(C)nc2c1c(C)cn2-c1c(C)cc(C)cc1C [CP-154526]
- effect on SERCA (SERCA [1]): increases the apparent Ca^2+ affinity of SERC2a
